System: DENV-R2A
Conditions: ratio of IC50 values

For C=C1NC(=O)C2(C)CSC(=N2)c2csc(n2)C2(C)CSC(=N2)C(C(C)CC)NC(=O)C(C)NC(=O)C(=CC(C)C)COC(=O)c2csc(n2)C(C(C)C)N(C)C(=O)C(COC)NC1=O (stereo not shown) [Thiamyxin B], the “IC50 against DENV-R2A lower compared to HCov-229E-luc” value was “fourfold”.
